Data published in paper PMC8191290, “Substrate specificities and reaction kinetics of the yeast oligosaccharyltransferase isoforms” (The Journal of Biological Chemistry, 2021).

Target: T1, OST6 complex (Saccharomyces cerevisiae, UniProt P39007)
T1 construct: were purified separately from strains expressing only one type of complex; made in house; host or cells: Saccharomyces cerevisiae, BY4742-derived strain ost3::LEU2MX6 OST4-1D4::kanMX6 YEp352-OST6
Assay: In vitro glycosylation assay, acceptor peptides, OST6 complex
Assay type: biochemical
Details: for OST6 complex activity compared with OST3 complex, in words: synthetic chitobiose-containing LLO, TAMRA-YANATS with 50 μM LLO C20 (Fig. 5A), TAMRA-DANYTK data not shown
Experimental: Figure 5 OST3 complex turns over both glycosylation substrates faster than the OST6 complex, but with similar substrate affinities.A, enzyme activity of OST3 and OST6 complexes. Reactions were performed with 25 μM peptide TAMRA-YANATS, 50 μM LLO C20, and varying concentrations of purified OST3 complex (blue) or OST6 complex (red). Glycopeptide product was measured by UPLC and initial rates of reaction were determined by linear regression of the initial phase of the reaction. Turnover rates were determined by linear regression of the initial rates of reaction measured across the enzyme concentrations of 0.01–0.1 μM for OST3 complex and 0.1–0.5 μM for OST6 complex. Error bars indicate standard deviations from the mean of three reaction sets (n = 3). B, synthetic LLO preferences of OST3 and OST6 complexes. Reactions were performed with 25 μM peptide TAMRA-YANATS, 50 μM of the indicated LLO (C15, C20, or C25) and 0.09 μM of purified OST3 complex (blue) or 0.5 μM OST6 complex (red). Turnover rates were determined by linear regression of the initial phase of the reaction and accounting for the enzyme concentration in the reaction. Error bars indicate standard deviations from the mean of three reactions (n = 3). C, quantification of kinetic parameters for the synthetic LLO C20. Reactions were performed with 25 μM peptide TAMRA-YANATS, varying concentrations of synthetic LLO C20, and either 0.1 μM purified OST3 complex (blue) or 0.5 μM OST6 complex (red). Turnover rates were determined by linear regression of the initial phase of the reaction and accounting for the enzyme concentration in the reaction. The mean of three reactions is shown and the data were fitted by nonlinear regression according to the Michaelis–Menten formula (R^2 = 0.9685 (OST3 complex), 0.9720 (OST6 complex)) using Prism. Error bars indicate standard deviations from the mean (n = 3). Asterisk indicates a data point not included in the Michaelis–Menten fitting, due to poor fitting. D, quantification of kinetic parameters for the peptide TAMRA-YANATS. Reactions were performed with 100 μM synthetic LLO C20, varying concentrations of peptide TAMRA-YANATS, and 0.1 μM purified OST3 complex (blue) or OST6 complex (red). Turnover rates were determined by linear regression of the initial phase of the reaction and accounting for the enzyme concentration in the reaction. The mean of three reactions is shown and the data were fitted by nonlinear regression according to the Michaelis–Menten formula (R^2 = 0.9794 (OST3 complex), 0.9214 (OST6 complex)) using Prism. Error bars indicate standard deviations from the mean (n = 3). Asterisk indicates data points not included in the Michaelis–Menten fitting, due to poor fitting. E, SDS-PAGE (14 % acrylamide) silver staining of 0.2 μg purified OST3 complex, OST6 complex, and OST3 complex purified from alg6Δ cells. Multiple bands of Ost1p and Wbp1p represent the fully and hypoglycosylated forms of the proteins. Ost4p is tagged with the 1D4 epitope for purification. F, enzyme activity of OST complexes. Reactions were performed with 100 μM peptide TAMRA-YANATS, 50 μM LLO C20, and varying concentrations from 0.1 to 0.3 μM of purified OST3 complex, OST6 complex, or OST3 complex purified from alg6Δ cells. Turnover rates were determined as in A by linear regression of the initial rates of reaction across the enzyme concentrations of 0.1–0.3 μM for each OST. Error bars indicate the standard deviation from the mean turnover rate of three reaction sets (n = 3).
TAMRA-labeled peptides with 5-TAMRA at the N-terminus and an amide group at the C-terminus were synthesized by WatsonBio Sciences. Unlabeled peptides (Table S1) were synthesized by Genscript Corp. and were designed so that the asparagine of the glycosylation sequon was in the middle (except for Peptide 8). Lyophilized peptides were dissolved in dimethyl sulfoxide (DMSO), unless specified otherwise, to a 3 mM stock solution and further diluted in ddH2O for reactions. […]

| Substance | kcat/KM (0.1 μM OST6 complex, 100 μM LLO C20) | kcat (apparent) (0.1 μM OST6 complex, 100 μM LLO C20, varying peptide, 30 °C, n = 3) | Km (0.1 μM OST6 complex, 100 μM LLO C20, varying peptide, 30 °C, n = 3, read-out: KM (apparent)) | affinity for the peptide substrate, OST6 compared with OST3 complex, in words (100 μM LLO C20) | peptide turnover rate of OST6 complex compared with OST3 complex (100 μM LLO C20, TAMRA-YANATS varied) | OST6 complex activity compared with OST3 complex, in words |
| --- | --- | --- | --- | --- | --- | --- |
| TAMRA-YANATS [shorter version of Peptide 5 of only six amino acid residues (TAMRA-YANATS)] | 0.05 min^-1 μM^−s1 | 0.0383 ± 0.0033 s⁻¹ | 44.8 ± 5.7 µM | similar | reduced six times | drastically reduced |
| TAMRA-DANYTK-NH2 [fluorescently labeled hexapeptide TAMRA-DANYTK-NH2 as the acceptor peptide, reference compound] |  |  |  |  |  | reduced |
